Residues, ends and D or L forms follow the SMILES beside them. *: point of attachment. Biotin = O=C1N[C@H]2[C@H](CS[C@H]2CCCCC(=O)*)N1
Test system: Bio-sTT1Ct-interacting proteins of primary cortical cultures
Experiment: Pull-down with biotinylated peptide and label-free proteomics
Format: binding, Rattus norvegicus
Conditions: pull-down from neuronal-enriched cortical cultures; did not pass the selection criteria
Description: Cultures incubated with biotinylated peptides and treated as indicated were lysed at 4°C in NP-40 lysis buffer. Equal protein amounts were combined with streptavidin-agarose beads and incubated for 1.5 h for specifically-bounded protein isolation. Peptides and their interacting proteins were released by incubation at 50°C for 40 min in RIPA modified buffer. Peptide-interacting proteins were collected and subjected to LC-ESI-MS/MS (HR, medium gradient) protein identification using a mass spectrometer (Orbitrap Exploris 240) and Proteome Discoverer software for analysis (CNB Proteomics Facility, CSIC). Further procedure details are provided as Supplementary material.
Cultures were incubated with Bio-TMyc or Bio-sTT1Ct (30 min) before treatment with BDNF (100 ng/ml) or NMDA (100 µM) for 30 additional minutes, or left untreated (Figure 2A). […] Then, proteins interacting with Bio-TMyc and Bio-sTT1Ct were identified by a label free proteomic assay, obtaining a total of 4697 proteins for the three different biological conditions and four independent experiments analyzed. […] Therefore, we evaluated by a Principal Component Analysis (PCA) whether the interactome profiles obtained were different for both peptides (Figure 2B). […]
[…]

`CC[C@H](C)[C@H](NC(=O)[C@H](CCCCN)NC(=O)[C@H](Cc1c[nH]cn1)NC(=O)[C@H](Cc1ccccc1)NC(=O)[C@H](CC(C)C)NC(=O)[C@@H](NC(=O)[C@H](Cc1ccccc1)NC(=O)[C@H](CCCNC(=N)N)NC(=O)[C@H](CCCNC(=N)N)NC(=O)[C@H](CCCNC(=N)N)NC(=O)[C@H](CCC(N)=O)NC(=O)[C@H](CCCNC(=N)N)NC(=O)[C@H](CCCNC(=N)N)NC(=O)[C@H](CCCCN)NC(=O)[C@H](CCCCN)NC(=O)[C@H](CCCNC(=N)N)NC(=O)CNC(=O)[C@H](Cc1ccc(O)cc1)NC(=O)CCCC[C@@H]1SC[C@@H]2NC(=O)N[C@@H]21)C(C)C)C(=O)N1CCC[C@H]1C(=O)N[C@@H](CC(C)C)C(=O)N[C@@H](CC(=O)O)C(=O)NCC(N)=O` [Bio-sTT1Ct] (Biotin-YGRKKRRQRRRFVLFHKIPLDG-NH2) was tested, and the “Binding of RhoGDI (Arhgdia) to the peptide” value was “very low binding”.

— PMC11984388, “A brain-accessible peptide modulates stroke inflammatory response and neurotoxicity by targeting BDNF-receptor TrkB-T1 specific interactome” (Theranostics, 2025)
